# From ChEMBL document CHEMBL1149086, “Antimalarial and antitumor evaluation of novel C-10 non-acetal dimers of 10beta-(2-hydroxyethyl)deoxoartemisinin” (J Med Chem, 2004)
# Experiments:
# [1] = system: Plasmodium falciparum; experiment: In vitro antimalarial activity against Plasmodium falciparum K1 by [3H]hypoxanthine uptake; format: functional, organism-based
# [2] = system: Plasmodium falciparum; experiment: In vitro antimalarial activity against Plasmodium falciparum HB3 by [3H]hypoxanthine uptake; format: functional, organism-based
Structure (SMILES),IC50 [1],IC50 [2]
C[C@H]1[C@@H](CCOC(=O)c2ccccc2C(=O)OCC[C@H]2O[C@@H]3O[C@]4(C)CC[C@H]5[C@H](C)CC[C@@H]([C@H]2C)[C@@]35OO4)O[C@@H]2O[C@]3(C)CC[C@H]4[C@H](C)CC[C@@H]1[C@@]24OO3,2.6 nM,1.6 nM
"C[C@H]1[C@@H](CCOCc2cccc(COCC[C@H]3O[C@@H]4O[C@]5(C)CC[C@H]6[C@H](C)CC[C@@H]([C@H]3C)[C@@]46OO5)c2)O[C@@H]2OC3(C)CC[C@H]4[C@H](C)CC[C@@H]1[C@@]24OO3 (single isomer, unassigned)",2.7 nM,2.1 nM
C[C@@H]1CC[C@H]2[C@@H](C)C(=O)O[C@@H]3O[C@@]4(C)CC[C@@H]1[C@]32OO4 [ARTEMISININ],12.3 nM,
C[C@H]1[C@@H](CCOC(=O)c2ccc(C(=O)OCC[C@H]3O[C@@H]4O[C@]5(C)CC[C@H]6[C@H](C)CC[C@@H]([C@H]3C)[C@@]46OO5)cc2)O[C@@H]2O[C@]3(C)CC[C@H]4[C@H](C)CC[C@@H]1[C@@]24OO3,4.6 nM,
